Data set [1] deals with Mus musculus. The experiment in a line: Concentration of liver in mice after sc administration at 33 mg/kg. In kind it is functional, organism-based. Further details: dose 33 mg/kg.
A further data set is filed under the species Rattus norvegicus. The experiment in a line: Inhibitory concentration that suppress the CA1 population spike in rat hippocampus slices. Type of data set: functional, organism-based.
For data set [2], the system named is Mus musculus. The experiment in a line: Concentration of brain in mice after sc administration at 33 mg/kg. Type of data set: functional, organism-based. Further details: dose 33 mg/kg.
The species entered for data set [3] is Mus musculus. The experiment in a line: Dose required to produce a 50% reduction in general motor activity after injection in mice. Type of data set: functional.
Data set [4] in a line: Partition coefficient of the compound. Type of data set: ADME. Particulars: octanol/water.
Data set [5] is described as follows: Brain penetration index calculated as ([Brain]/[Liver])x100 @ 5 min after sc administration in mice at 33 mg/kg. The following applies: route subcutaneous. Type of data set: functional.
Data set [6] can be described thus: Brain penetration index calculated as ([Brain]/[Liver])x100 @ 5 min after sc administration in mice at 3-39 mg/kg. Type of data set: functional.
The species entered for data set [7] is Mus musculus. The following applies: 3-39 mg/kg.
The species entered for data set [8] is Mus musculus. Particulars: Liver.

In the case of `C=CC(N)CCC(=O)OCC(COC(=O)CCCCCCC/C=C\C/C=C\C/C=C\CC)OC(=O)CCCN` (stereo unspecified), the values for the Concentration (nM (g of tissue)-1) in the data set with Mus musculus [1] and in the data set with Mus musculus [2] were 8.94 and 8.34, respectively. In the data set filed under Rattus norvegicus, this compound yielded an IC50 of 800 µM. The Dose in the data set listed under Mus musculus [3] was 25 µM/kg. This compound also yielded a Partition coefficient in data set [4] of 1.76. Further, the BPI in data set [5] is 97.
The compound `C=CC(N)CCC(=O)O` (stereo unspecified) [VIGABATRIN] showed a Dose in the data set filed under Mus musculus [3] of 9000 µM/kg.
As to `NCCCC(=O)O` [GAMMA-AMINOBUTYRIC ACID], in data set [6], the BPI was 1. Besides, the Concentration (nM (g of tissue)-1) in the data set listed under Mus musculus [7] turned out to be 0.04; in the data set listed under Mus musculus [8], 4.17. The compound also registered a Partition coefficient in data set [4] of 0.004.

By IC50 is commonly meant the concentration that inhibits the measured activity by half. Read a low IC50 as higher potency.

(Values after ChEMBL document CHEMBL1124830, “Synthesis, brain uptake, and pharmacological properties of a glyceryl lipid containing GABA and the GABA-T inhibitor gamma-vinyl-GABA” (J Med Chem, 1990).)
